According to patent publication US20180215734A1, “PYRIMIDINE DERIVATIVES AS KINASE INHIBITORS AND THEIR THERAPEUTICAL APPLICATIONS” (NantBioScience, Inc., priority 2016, published 2018):
Read-outs that look alike come from different tables or passages of the source.

Assays:
FGFR1(h) = FGFR1(h) (Homo sapiens, UniProt P11362); experiment: Kinase assay, FGFR1(h); assay type: biochemical; settings: 1 μM
Procedure: (§1) Kinase assay protocols well known to those of ordinary skill in the art were used. Specifically, the buffer composition was as follows: 20 mM MOPS, 1 mM EDTA, 0.01% Brij-35, 5% Glycerol, 0.1% β-mercaptoethanol, 1 mg/mL BSA. Test compounds were initially dissolved in DMSO at the desired concentration, then serially diluted to the kinase assay buffer. In a final reaction volume of 25 μL FGFR1(h) (5-10 mU) and KDR(h) (5-10 mU) are incubated with 8 mM MOPS pH 7.0, 0.2 mM EDTA, 200 μM LRRASLG (Kemptide), 10 mM magnesium acetate and [γ^33P-ATP]. The reaction was initiated by the addition of the MgATP mix. After incubation for 40 minutes at room temperature, the reaction was stopped by addition of 5 μL of a 3% phosphoric acid solution. Ten L of the reaction was then spotted onto a P30 filter mat and washed three times for 5 minutes in 50 mM phosphoric acid and once in methanol prior to drying and scintillation counting. Wells containing substrate but no kinase and wells containing a phosphopeptide control were used to set 0% and 100% phosphorylation value, respectively.
(§2) Of all of the steps in developing a drug, the hardest is finding promising compounds. (See, e.g., Malo et al., “Statistical practice in high-throughput screening data analysis,” Nature Biotechnology, 2006, 24, 167-75.) Kinase inhibitors often also have an anti-proliferative effect. […] The kinase inhibitory activity Compound 19 was tested using the kinase assay described in Example 3. […] These mutations in the tested kinases are thought to play an important role in transformation of some cancers.

Kato III = experiment: Inhibition of proliferation (CellTiterblue, 72 hr), Kato III; assay type: cell-based
Procedure: (§3) A number of studies were performed to analyze the consequences of tyrosine kinase inhibition in cell lines. To do this, 1000 cells are seeded in 27 μl/well in 384-well microplates, which are then placed in a humidified CO2 incubator at 37° C. overnight. The next day, 3 μl/well of 10× concentrated drug is added and the plates are returned to the incubator for 72 hr. After 72 hr incubation, plates are removed and 6 μl/well CellTiterblue (Promega) viability reagent is added. Plates are returned to the incubator for 3 hrs, after which fluorescence measurements are read on the Victor X3 plate reader (Perkin Elmer). Data are analyzed using Excel (Microsoft), and GI50 values are determined using Prism (Graphpad).

KDR(h) = KDR(h) (Homo sapiens, UniProt P35968); experiment: Kinase assay, KDR(h); assay type: biochemical
Procedure: as §1, §2

SNU16 = experiment: Inhibition of proliferation (CellTiterblue, 72 hr), SNU16; assay type: cell-based
Procedure: as §3

KG1a = experiment: Inhibition of proliferation (CellTiterblue, 72 hr), KG1a; assay type: cell-based, human; settings: 72 hr
Procedure: as §3

TG1a Human AML Xenograft = experiment: Antitumor efficacy on TG1a human AML xenograft; assay type: in vivo, mouse; settings: 20 mg/kg, Qdx10, IP
Procedure: In this Example the antitumor activity of compounds 14, 17, 19, 45, and 48 of the current invention are tested using an art-recognized xenograft model of AML. (“T/C” refers to the ratio of the tumor's size in treated animals versus the tumor size in control untreated animals. “BWC” refers to “body weight change”).

RT112 = experiment: Inhibition of proliferation (CellTiterblue, 72 hr), RT112; assay type: cell-based
Procedure: as §3

[1] = Metabolic stability, rat liver microsomes; assay type: in vitro ADME
[2] = Metabolic stability, mouse liver microsomes; assay type: in vitro ADME
[3] = Metabolic stability, human liver microsomes; assay type: in vitro ADME

Sequence of FGFR1(h) (P11362 22-822): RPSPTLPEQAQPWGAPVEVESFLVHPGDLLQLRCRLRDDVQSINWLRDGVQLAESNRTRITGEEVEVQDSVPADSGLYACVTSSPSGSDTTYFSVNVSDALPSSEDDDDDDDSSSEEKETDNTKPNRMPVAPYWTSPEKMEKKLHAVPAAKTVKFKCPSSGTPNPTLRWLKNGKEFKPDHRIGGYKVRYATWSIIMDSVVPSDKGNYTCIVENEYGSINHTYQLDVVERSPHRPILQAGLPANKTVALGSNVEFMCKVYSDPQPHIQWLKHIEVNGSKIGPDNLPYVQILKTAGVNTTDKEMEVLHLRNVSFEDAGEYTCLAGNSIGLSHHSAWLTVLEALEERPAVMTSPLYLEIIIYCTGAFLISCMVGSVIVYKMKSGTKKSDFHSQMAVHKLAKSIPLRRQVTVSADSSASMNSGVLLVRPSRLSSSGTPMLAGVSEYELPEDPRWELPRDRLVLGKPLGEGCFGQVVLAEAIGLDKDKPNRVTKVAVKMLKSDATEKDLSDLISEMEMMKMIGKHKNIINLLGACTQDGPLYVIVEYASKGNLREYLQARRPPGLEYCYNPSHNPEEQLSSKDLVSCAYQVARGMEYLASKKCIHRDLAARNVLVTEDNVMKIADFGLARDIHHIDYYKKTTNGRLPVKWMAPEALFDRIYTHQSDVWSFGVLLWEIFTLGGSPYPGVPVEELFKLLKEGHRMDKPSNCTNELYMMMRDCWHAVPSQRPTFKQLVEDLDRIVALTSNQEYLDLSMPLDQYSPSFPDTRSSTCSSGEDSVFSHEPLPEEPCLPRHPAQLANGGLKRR
Sequence of KDR(h) (P35968 20-1356): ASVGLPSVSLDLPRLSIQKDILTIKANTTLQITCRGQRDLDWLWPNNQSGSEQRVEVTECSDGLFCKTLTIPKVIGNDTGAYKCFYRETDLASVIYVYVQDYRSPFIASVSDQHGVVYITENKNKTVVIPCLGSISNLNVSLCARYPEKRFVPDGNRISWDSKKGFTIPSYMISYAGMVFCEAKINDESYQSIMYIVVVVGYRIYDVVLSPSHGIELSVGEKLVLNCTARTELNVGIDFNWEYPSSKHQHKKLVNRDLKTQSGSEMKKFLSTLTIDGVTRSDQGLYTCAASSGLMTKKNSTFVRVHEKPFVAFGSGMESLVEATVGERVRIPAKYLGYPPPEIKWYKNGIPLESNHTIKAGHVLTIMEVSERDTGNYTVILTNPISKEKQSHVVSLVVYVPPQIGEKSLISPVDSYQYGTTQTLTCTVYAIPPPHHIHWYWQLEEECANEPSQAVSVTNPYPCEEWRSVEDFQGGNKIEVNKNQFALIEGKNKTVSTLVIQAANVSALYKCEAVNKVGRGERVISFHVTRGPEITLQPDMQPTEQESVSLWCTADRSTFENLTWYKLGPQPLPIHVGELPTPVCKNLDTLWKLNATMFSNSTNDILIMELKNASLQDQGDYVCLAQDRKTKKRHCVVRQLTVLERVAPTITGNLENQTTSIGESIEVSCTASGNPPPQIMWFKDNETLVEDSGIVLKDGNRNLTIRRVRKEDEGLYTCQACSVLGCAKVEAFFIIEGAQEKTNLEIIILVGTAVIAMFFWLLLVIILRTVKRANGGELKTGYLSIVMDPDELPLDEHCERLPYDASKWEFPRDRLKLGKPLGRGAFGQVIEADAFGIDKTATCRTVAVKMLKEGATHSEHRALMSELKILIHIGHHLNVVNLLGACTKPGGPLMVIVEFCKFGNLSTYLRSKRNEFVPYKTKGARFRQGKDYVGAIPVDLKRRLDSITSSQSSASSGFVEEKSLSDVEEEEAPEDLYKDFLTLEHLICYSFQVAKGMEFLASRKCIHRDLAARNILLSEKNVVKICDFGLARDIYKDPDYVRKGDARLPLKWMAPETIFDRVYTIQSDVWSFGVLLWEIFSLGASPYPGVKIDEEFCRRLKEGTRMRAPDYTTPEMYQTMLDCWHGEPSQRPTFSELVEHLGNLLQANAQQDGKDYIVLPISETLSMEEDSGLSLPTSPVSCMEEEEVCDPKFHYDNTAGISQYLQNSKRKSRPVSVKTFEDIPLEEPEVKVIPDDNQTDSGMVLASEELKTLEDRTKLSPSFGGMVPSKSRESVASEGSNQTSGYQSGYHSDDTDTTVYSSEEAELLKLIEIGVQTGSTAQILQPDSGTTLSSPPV

Structure (SMILES)	inhibition at 1 µM (FGFR1(h))	GI50 (Kato III; Homo sapiens, KATO III, 72 h)	inhibition at 1 µM (KDR(h))	GI50 (SNU16; Homo sapiens, SNU-16, 72 h)	GI50 (KG1a; Homo sapiens, KG-1a)	BWC (%) (TG1a Human AML Xenograft)	T/C (%) (day14) (TG1a Human AML Xenograft)	GI50 (RT112; Homo sapiens, RT-112, 72 h)	% Inhibition at 1 μM FGFR1(h) (FGFR1(h))	GI50 (Kato III)	% Inhibition at 1 μM KDR(h) (KDR(h); 1 μM)	GI50 (SNU16)	GI50 (KG1a)	GI50 (RT112)	half-life [1]	half-life [2]	half-life [3]
CCN1CCN(c2ccc(Nc3ncnc(Oc4cc(F)c5[nH]c(C)cc5c4F)c3C#N)cc2)CC1C (centres unmarked) [Compound 48]	100%	152 nM	84%	35 nM	0.55 nM	−3.8%	−72.8%	57 nM	–	–	–	–	–	–	–	–	–
CCN1[C@H](C)CN(c2ccc(Nc3ncnc(Oc4cc(F)c5[nH]c(C)cc5c4F)c3C#N)cc2)C[C@@H]1C [Compound 47]	101%	123 nM	74%	22 nM	0.5 nM	–	–	48 nM	–	–	–	–	–	–	–	–	–
Cc1cc2c(F)c(Oc3ncnc(Nc4ccc(N5CCN[C@@H](C)C5)cc4)c3C#N)cc(F)c2[nH]1 [Compound 34]	–	–	–	–	–	–	–	–	100%	98 nM	89%	22 nM	0.28 nM	52 nM	–	–	–
Cc1cc2c(F)c(Oc3ncnc(Nc4ccc(N5CCN(CCO)CC5)cc4)c3C#N)cc(F)c2[nH]1 [Compound 31]	102%	205 nM	95%	32 nM	0.35 nM	–	–	171 nM	–	–	–	–	–	–	–	–	–
Cc1cc2c(F)c(Oc3ncnc(Nc4ccc(N5[C@H](C)CNC[C@@H]5C)cc4)c3C#N)cc(F)c2[nH]1 [Compound 49]	101%	86 nM	82%	24 nM	0.6 nM	–	–	48 nM	–	–	–	–	–	–	–	–	–
Cc1cc2c(F)c(Oc3ncnc(Nc4ccc(N5CCN[C@@H](C)C5)cc4)c3C#N)cc(F)c2[nH]1 [Compound 33]	101%	88 nM	89%	12 nM	0.28 nM	–	–	–	–	–	–	–	–	126 nM	–	–	–
C=CC(=O)Nc1cccc(Nc2ncnc(Oc3cc(F)c4[nH]c(C)cc4c3F)c2C#N)c1 [Compound 53]	100%	152 nM	93%	28 nM	3.59 nM	–	–	94 nM	–	–	–	–	–	–	–	–	–
Cc1cc2c(F)c(Oc3ncnc(Nc4ccc(N5C[C@@H](C)N(C)[C@@H](C)C5)cc4)c3C#N)cc(F)c2[nH]1 [Compound 45]	101%	79 nM	73%	15 nM	0.43 nM	−11.7%	4.9%	37 nM	–	–	–	–	–	–	–	–	–
Cc1cc2c(F)c(Oc3ncnc(Nc4ccc(N5C[C@@H](C)N[C@@H](C)C5)cc4)c3C#N)ccc2[nH]1 [Compound 17]	100%	113 nM	96%	20 nM	0.74 nM	−5.7%	−79.5%	83 nM	–	–	–	–	–	–	–	–	–
Cc1cc2c(F)c(Oc3ncnc(Nc4ccc(N5CCN6CCCC6C5)cc4)c3C#N)cc(F)c2[nH]1 (centres unmarked) [Compound 50]	101%	174 nM	88%	52 nM	2.91 nM	–	–	49 nM	–	–	–	–	–	–	–	–	–
Cc1cc2c(F)c(Oc3ncnc(Nc4ccc(N5CCN(C)C(C)C5)cc4)c3C#N)cc(F)c2[nH]1 (centres unmarked) [Compound 46]	101%	111 nM	90%	22 nM	1.37 nM	–	–	48 nM	–	–	–	–	–	–	–	–	–
Cc1cc2c(F)c(Oc3ncnc(Nc4ccc(N5CCNCC5)cc4)c3C#N)cc(F)c2[nH]1 [Compound 14]	99%	137 nM	93%	23 nM	1.6 nM	−4.0%	−60.6%	76 nM	–	–	–	–	–	–	–	–	–
Cc1cc2c(F)c(Oc3ncnc(Nc4ccc(N5CCN6CCCCC6C5)cc4)c3C#N)cc(F)c2[nH]1 (centres unmarked) [Compound 51]	101%	208 nM	80%	66 nM	1.62 nM	–	–	73 nM	–	–	–	–	–	–	–	–	–
Cc1nc(Nc2ncc(C(=O)Nc3c(C)cccc3Cl)s2)cc(N2CCN(CCO)CC2)n1 [DASATINIB, dasatinib, reference compound]	–	–	–	–	–	–	–	–	–	–	–	–	–	–	11.9 min	9.2 min	7.5 min
